According to patent publication US8222414B2, “Indole compounds as an inhibitor of cellular necrosis” (LG Life Sciences Ltd., priority 2007, dated 2012):

Each compound was assayed on primary hepatocytes isolated from rats (assay: Cell protective effects against doxorubicin in hepatocytes (WST-1 cell viability)). Details: Hepatocyte; primary rat hepatocytes pretreated with compound for 30 min, then doxorubicin; viability by WST-1 after 24-48 h.
Format: cell-based
Experimental: Various endogenous/exogenous attacks on the cells trigger the mechanisms of cell death which is broadly classified into two types, i.e. apoptosis or necrosis. Using these cell death mechanisms, in the present experimental example, primacy hepatocytes isolated from rats were treated with drugs which were clinically shown to result in serious side-effects of hepatocyte toxicity or various chemicals which derive cell death, and the compounds synthesized in the Examples were estimated for their hepatocyte protective effects, after 24-48 h. The substances used to derive hepatocyte death include CCl4, ActD, H2O2, doxorubicin, anti-Fas Ab/Actinomycin D, acetaminophen, EtOH, CdCl2, palmitate, stearate, cyclophosphamide, terfenadine, diclofenac, simvastatin, and adefovir. Primary hepatocytes were isolated using the method of Seglen P O (Experimental Cell Research 74 (1972) pp 450-454). Briefly, hepatocytes were isolated according to the two-step collagenase perfusion method, and dead cells were removed by low speed (500 rpm) centrifugation for 10 min using percoll gradient (Kreamer B L etc, In Vitro Cellular & Developmental Biology 22 (1986) pp 201-211). During this step, the viability of cells was maintained 90% or above. The cells were suspended in HepatoZYME media (Gibco BRL), and the number of cells was counted. 1.5×10^4 cells in 100 μl were placed into the collagen-coated 96-well plate (BD biocoat), and adhered on the bottom for 3-4 h.
In order to assess the hepatocyte protective effect, above adhered cells were pretreated with the Example compounds for 30 min. At this time, the concentration of the Example compounds were serially diluted by 2-fold or 3-fold over 5 steps starting from 30 uM, 10 uM or 1 uM depending on the experiments, and the final concentration of DMSO was adjusted to 0.2%. 30 min after the treatment by compounds, cells were treated by the substances deriving hepatocyte death or hepatotoxic drugs at the concentrations indicated in Table 1. After 24-48 h, the viability of cells was determined to estimate the hepatocyte protective effects. The viability of cells was determined using WST-1 (MK-400, […]) method by the absorbance at 440 nm. Hepatocyte protective effects of the Example compounds were represented by “EC50” which was calculated from measured values. “EC50” herein means the concentration of the compound at which 50% of maximum protective effect is observed in the experiment.
Work on c1cc(NC2CCNCC2)c2[nH]c(C3=NCCS3)cc2c1 [Example 7, [2-(4,5-Dihydro-thiazol-2-yl)-1H-indol-7-yl]-piperidin-4-yl-amine] yielded an EC50 of 1170 nM. In the case of CN(C)Cc1cc(NC2CCCC2)c2[nH]c(C3=N[C@H](CO)CS3)cc2c1 [Example 34, [(R)-2-(5-(dimethylamino)methyl-7-cyclopentylamino-1H-indol-2-yl)-4,5-dihydro-thiazol-4-yl]-methanol], the EC50 is reported as 5580 nM. With Cc1cc(NC2CCOCC2)c2[nH]c(C3=N[C@@H](CC(=O)O)CO3)cc2c1 [Example 120, [(S)-2-(5-methyl-7-(tetrahydropyran-4-yl)amino-1H-indol-2-yl)-4,5-dihydro-oxazol-4-yl]-acetic acid] the EC50 was 1120 nM. Cc1cc(NC2CCC(F)(F)CC2)c2[nH]c(C3=N[C@@H](CCN4CCOCC4)CS3)cc2c1 [Example 251, (5-Methyl-2-{(S)-4-[morpholin-4-yl-ethyl]-4,5-dihydro-thiazol-2-yl}-1H-indol-7-yl)-4,4-difluorocyclohexyl-amine] showed an EC50 of 300 nM. With O=C(O)C[C@@H]1CSC(c2cc3cc(Oc4ccccc4)cc(NCC4CCOCC4)c3[nH]2)=N1 [Example 15, [(R)-2-(5-phenoxy-7-(tetrahydropyran-4-yl)methylamino-1H-indol-2-yl)-4,5-dihydro-thiazol-4-yl]-acetic acid] the EC50 was 600 nM. With Cc1cc(NC2CCOCC2)c2[nH]c(C3=N[C@@H](CC(=O)O)CS3)cc2c1 [Example 25, [(S)-2-(5-methyl-7-(tetrahydropyran-4-yl)amino-1H-indol-2-yl)-4,5-dihydro-thiazol-4-yl]-acetic acid] the EC50 was 760 nM. O=C(O)C[C@@H]1CSC(c2cc3cc(Oc4cccnc4)cc(NC4CCCC4)c3[nH]2)=N1 [Example 88, [(R)-2-(5-(pyridin-3-yl)oxy-7-cyclopentylamino-1H-indol-2-yl)-4,5-dihydro-thiazol-4-yl]-acetic acid] gave an EC50 of 1870 nM. Work on OC[C@@H]1CSC(c2cc3cccc(NC4CCOCC4)c3[nH]2)=N1 [Example 51, [(R)-2-(7-(tetrahydropyran-4-yl)amino-1H-indol-2-yl)-4,5-dihydro-thiazol-4-yl]-methanol] yielded an EC50 of 600 nM. Cc1cc(NCC2CCOCC2)c2[nH]c(C3=N[C@@H](CCN4CCNC(=O)C4)CS3)cc2c1 [Example 253, (5-Methyl-2-{(S)-4-[2-oxopiperazin-4-yl-ethyl]-4,5-dihydro-thiazol-2-yl}-1H-indol-7-yl)-(tetrahydropyran-4-yl)methyl-amine] showed an EC50 of 200 nM. With Cc1cc(NC2CCCC2)c2[nH]c(-c3ncc(CO)s3)cc2c1 [Example 130, [2-(5-Methyl-7-cyclopentylamino-1H-indol-2-yl)-thiazol-5-yl]-methanol] the EC50 was 100 nM. With Fc1cc(NC2CCCC2)c2[nH]c(C3=N[C@H](CCN4CCOCC4)CS3)cc2c1 [Example 201, (5-Fluoro-2-{(R)-4-[(morpholin-4-yl)-ethyl]-4,5-dihydro-thiazol-2-yl}-1H-indol-7-yl)-cyclopentyl-amine] the EC50 was 330 nM. For Cc1cc(NC2CCC2)c2[nH]c(C3=N[C@@H](CC(=O)O)CS3)cc2c1 [Example 19, [(S)-2-(5-methyl-7-cyclobutylamino-1H-indol-2-yl)-4,5-dihydro-thiazol-4-yl]-acetic acid], the EC50 was 350 nM. OCc1cc(NC2CCCC2)c2[nH]c(C3=N[C@H](CO)CS3)cc2c1 [Example 6, (R)-2-[7-cyclopentylamino-5-(hydroxymethyl)-1H-indol-2-yl]-4,5-dihydro-thiazol-4-yl-methanol] showed an EC50 of 4930 nM. c1ccc(Oc2cc(NCC3CCOCC3)c3[nH]c(C4=N[C@@H](CCN5CCOCC5)CS4)cc3c2)cc1 [Example 247, (5-Phenoxy-2-{(S)-4-[morpholin-4-yl-ethyl]-4,5-dihydro-thiazol-2-yl}-1H-indol-7-yl)-(tetrahydropyran-4-yl)methyl-amine] showed an EC50 of 860 nM. Work on O=C(O)CC[C@@H]1CSC(c2cc3cc(Cl)cc(NC4CCCC4)c3[nH]2)=N1 [Example 101, 3-[(R)-2-(5-chloro-7-cyclopentylamino-1H-indol-2-yl)-4,5-dihydro-thiazol-4-yl]-propionic acid] yielded an EC50 of 1000 to 10000 nM. O=C(O)CC[C@@H]1CSC(c2cc3cc(F)cc(NC4CCCC4)c3[nH]2)=N1 [Example 109, 3-[(R)-2-(5-fluoro-7-cyclopentylamino-1H-indol-2-yl)-4,5-dihydro-thiazol-4-yl]-propionic acid] gave an EC50 of 610 nM. Compound c1ccc(Oc2cc(NC3CCCC3)c3[nH]c(C4=N[C@@H](CCN5CCCC5)CS4)cc3c2)cc1 [Example 249, (5-Phenoxy-2-{(S)-4-[pyrrolidin-1-yl-ethyl]-4,5-dihydro-thiazol-2-yl}-1H-indol-7-yl)-cyclopentyl-amine] has an EC50 of 110 nM. For CCOc1cc(NC2CCCC2)c2[nH]c(C3=N[C@@H](CC(=O)OC)CS3)cc2c1 [Example 46, [(S)-2-(5-ethoxy-7-cyclopentylamino-1H-indol-2-yl)-4,5-dihydro-thiazol-4-yl]-acetic acid methyl ester], the EC50 was 400 nM. COC(=O)C[C@@H]1CSC(c2cc3cc(CS(C)(=O)=O)cc(NC4CCCC4)c3[nH]2)=N1 [Example 97, [(R)-2-(5-methanesulfonylmethyl-7-cyclopentylamino-1H-indol-2-yl)-4,5-dihydro-thiazol-4-yl]-acetic acid methyl ester] showed an EC50 of 4100 nM. CC1SC(c2cc3cccc(NCC4CCOCC4)c3[nH]2)=N[C@H]1C(O)C1CCCN1 (stereo partly drawn) [Example 241, (5-Methyl-[(S)-2-(7-(tetrahydropyran-4-yl)methylamino-1H-indol-2-yl)-4,5-dihydro-thiazol-4-yl])-pyrrolidin-2-yl-methanol] was tested, and the EC50 was 210 nM. CC(=O)N1CCN(CC[C@H]2CSC(c3cc4cc(Cl)cc(NC5CCCC5)c4[nH]3)=N2)CC1 [Example 178, 1-(4-{2-[(S)-2-(7-cyclopentylamino-5-chloro-1H-indol-2-yl)-4,5-dihydro-thiazol-4-yl]-ethyl}-piperazin-1-yl)-ethanone] was tested, and the EC50 was 230 nM. With OC[C@@H]1CSC(c2cc3cc(Oc4cccnc4)cc(NC4CCCC4)c3[nH]2)=N1 [Example 61, [(R)-2-(5-(pyridin-3-yl)oxy-7-cyclopentylamino-1H-indol-2-yl)-4,5-dihydro-thiazol-4-yl]-methanol] the EC50 was 780 nM. Compound c1cc(NC2CCCC2)c2[nH]c(C3=NCCS3)cc2c1 [Example 1, Cyclopentyl-[2-(4,5-dihydro-1,3-thiazol-2-yl)-1H-indol-7-yl]-amine] has an EC50 greater than 1000 nM. For OCc1csc(-c2cc3cccc(NC4CCCC4)c3[nH]2)n1 [Example 133, [2-(7-Cyclopentylamino-1H-indol-2-yl)-thiazol-4-yl]-methanol], the EC50 was 310 nM. For O=C(O)[C@@H]1CSC(c2cc3cccc(NC4CCOCC4)c3[nH]2)=N1 [Example 78, [(R)-2-(7-(tetrahydropyran-4-yl)amino-1H-indol-2-yl)-4,5-dihydro-thiazol-4-yl]-carboxylic acid], the EC50 was 29400 nM. With O=C1CCCN1CC[C@@H]1CSC(c2cc3cc(F)cc(NC4CCCC4)c3[nH]2)=N1 [Example 205, (5-Fluoro-2-{(R)-4-[(2-oxopyrrolidin-1-yl)-ethyl]-4,5-dihydro-thiazol-2-yl}-1H-indol-7-yl)-cyclopentyl-amine] the EC50 was 340 nM. CS(=O)(=O)c1ccc(Oc2cc(NC3CCCC3)c3[nH]c(C4=N[C@H](CC(=O)O)CS4)cc3c2)cc1 [Example 94, [(R)-2-(5-(4-(methanesulfonyl)phenoxy)-7-cyclopentylamino-1H-indol-2-yl)-4,5-dihydro-thiazol-4-yl]-acetic acid] gave an EC50 of 28100 nM.

Same assay, conditions: primary rat hepatocytes pretreated with compound for 30 min, then doxorubicin; viability by WST-1 after 24-48 h
CC(=O)N1CCN(CC[C@H]2CSC(c3cc4cc(Oc5ccccc5)cc(NC5CCCC5)c4[nH]3)=N2)CC1 [Example 239] showed an EC50 of 830 nM. O=C(CO)N1CCN(CC[C@H]2CSC(c3cc4cc(Oc5ccccc5)cc(NC5CCCC5)c4[nH]3)=N2)CC1 [Example 229] showed an EC50 of 250 nM. Cc1cc(NC2CCOCC2)c2[nH]c(C3=N[C@@H](CCO)CS3)cc2c1 [Example 24, [(S)-2-(5-methyl-7-(tetrahydropyran-4-yl)amino-1H-indol-2-yl)-4,5-dihydro-thiazol-4-yl]-ethanol] gave an EC50 of 130 nM. CCOc1cc(NC2CCCC2)c2[nH]c(C3=N[C@@H](CCO)CS3)cc2c1 [Example 48, [(S)-2-(5-ethoxy-7-cyclopentylamino-1H-indol-2-yl)-4,5-dihydro-thiazol-4-yl]-ethanol] showed an EC50 of 200 nM. c1ccc(Oc2cc(NC3CCCC3)c3[nH]c(C4=N[C@@H](CCN5CCN(c6ccccn6)CC5)CS4)cc3c2)cc1 [Example 235, (5-Phenoxy-2-{(S)-4-[(pyridin-2-yl)piperazine-ethyl]-4,5-dihydro-thiazol-2-yl}-1H-indol-7-yl)-cyclopentyl-amine] was tested, and the EC50 was greater than 540 nM.
